Like-named read-outs stand apart in the source and are kept apart here.
Columns and labels:
KM mice = experiment: animal or person; assay type: in vivo; conditions: for ED50: Mus musculus
SD rats = experiment: animal or person; assay type: in vivo; conditions: for ED50: Rattus norvegicus
[1] = KM mice, single tail vein injection at 2×ED50, time from disappearance to recovery of righting reflex
[2] = KM mice, single tail vein injection at 2×ED50, time from recovery of righting reflex to free crawling
[3] = KM mice (male, 18-22 g), injection via the tail vein, disappearance of righting reflex, read-out: ED50
[4] = SD rats (male, 220-300 g), injection via the tail vein, disappearance of righting reflex, read-out: ED50
[5] = SD rats, single tail vein injection at 2×ED50, time from disappearance to recovery of righting reflex
[6] = SD rats, single tail vein injection at 2×ED50, time from recovery of righting reflex to free crawling

Row | SMILES | 2ED50 duration (KM mice; [1]) | 2ED50 recovery time (KM mice; [2]) | Quality of recovery (KM mice; KM mice, tail vein injection) | ED50 (KM mice; [3]) | ED50 (SD rats; [4]) | 2ED50 duration (SD rats; [5]) | 2ED50 recovery time (SD rats; [6]) | Quality of recovery (SD rats; SD rats, tail vein injection) | ED50 (KM mice) | 2ED50 duration (KM mice; mouse, in vivo) | 2ED50 recovery time (KM mice; mouse, in vivo) | Quality of recovery (KM mice; mouse, in vivo) | ED50 (SD rats) | 2ED50 duration (SD rats; rat, in vivo) | 2ED50 recovery time (SD rats; rat, in vivo) | Quality of recovery (SD rats; rat, in vivo)
1 | Cc1c(Br)cc2c(c1Cl)-n1c(C)cnc1[C@H](CCC(=O)OC(C)(C)NC(=O)OC1CCC1)N=C2c1ccccn1 [Example 66] | 3.14 min | 2.35 min | +++ (“+++” means 3-5 min) | 30.4 mg/kg | 4.8 mg/kg | 4.02 min | 2.17 min | ++ (“++” means 1-3 min) |  |  |  |  |  |  |  | 
2 | COC(=O)C(CC(F)C(C)(C)OC(=O)CC[C@@H]1N=C(c2ccccn2)c2cc(Br)c(OC)cc2-n2c(C)cnc21)OC (stereo partly drawn) [Example 67, Methyl 5-((3-((4S)-8-bromo-9-methoxy-1-methyl-6-(pyridine-2-yl)-4H-benzo [f]imidazo[1,2-a][1,4]diazapin-4-yl)propionyl)oxy)-4-fluoro-2-methoxy-5-hexanoate adipate] | 2.58 min | 2.38 min | ++ (“++” means 1-3 min) | 31.7 mg/kg | 6.9 mg/kg | 3.18 min | 3.01 min | +++ (“+++” means 3-5 min) |  |  |  |  |  |  |  | 
3 | CCC(CC)OC(=O)OC(OC(=O)CC[C@@H]1N=C(c2ccccn2)c2cc(Cl)c(OC(F)(F)F)cc2-n2c(C)cnc21)C1CC(F)C(CC)C1 (stereo partly drawn) [Example 68, (3-Ethyl-4-fluorocyclopentyl) (((pentanyl-3-yloxy)carbonyl)oxy)methyl 3-((4S)-8-chloro-1-methyl-6-(pyridine-2-yl)-9-(trifluoromethoxy)-4H-benzo[f]imidazo[1,2-a][1,4]diazapin-4-yl) propionate L-aspartate] | 3.09 min |  |  | 28.9 mg/kg | 5.9 mg/kg | 4.28 min |  |  |  |  |  |  |  |  |  | 
4 | CCOC(=O)C1(OC(=O)CC[C@@H]2N=C(c3ccccn3)c3cc(Cl)c(Cl)cc3-n3c(C)cnc32)CC1 [Example 69, Ethyl 1-((3-((4S)-8,9-dichloro-1-methyl-6-(pyridine-2-yl)-4H-benzo[f]imidazo[1,2-a][1,4]diaza-4-yl)propionyl)oxy) cyclopropane-1-carboxylate benzoic acid] |  |  |  |  |  |  |  |  | 23.8 mg/kg | 3.45 min | 2.38 min | ++++ (key: “+” means <1 mm; “++” means 1-3 min; “+++” means 3-5 min; “++++” means 5-10 min; “+++++” means >10 mm) | 6.1 mg/kg | 3.16 min | 2.48 min | ++ (key: “+” means <1 mm; “++” means 1-3 min; “+++” means 3-5 min; “++++” means 5-10 min; “+++++” means >10 mm)
5 | COC(=O)OCOC(=O)CC[C@@H]1N=C(c2ccccn2)c2cc(Cl)c(F)cc2-n2c(C)cnc21 [Example 70, ((Methoxycarbonyl)oxy)methyl 3-((4S)-8-chloro-9-fluoro-1-methyl-6-(pyridine-2-yl)-4H-benzo[f]imidazo [1,2-a][1,4]diaza-4-ylpropionate borate] |  |  |  |  |  |  |  |  | 26.7 mg/kg | 3.27 min | 2.54 min | +++ (key: “+” means <1 mm; “++” means 1-3 min; “+++” means 3-5 min; “++++” means 5-10 min; “+++++” means >10 mm) | 4.6 mg/kg | 3.56 min | 2.57 min | +++ (key: “+” means <1 mm; “++” means 1-3 min; “+++” means 3-5 min; “++++” means 5-10 min; “+++++” means >10 mm)
6 | CCOC(=O)OCOC(=O)CC[C@@H]1N=C(c2ccccn2)c2cc(Cl)cc(F)c2-n2c(C)cnc21 [Example 71, ((Ethoxycarbonyl)oxy)methyl 3-((4S)-8-chloro-10-fluoro-1-methyl-6-(pyridine-2-yl)-4H-benzo[f]imidazo [1,2-a][1,4]diaza-4-yl)propionate 2-hydroxypropane-1,2,3-tricarboxylate] |  |  |  |  |  |  |  |  | 28.2 mg/kg | 3.09 min | 2.36 min | ++ (key: “+” means <1 mm; “++” means 1-3 min; “+++” means 3-5 min; “++++” means 5-10 min; “+++++” means >10 mm) | 4.8 mg/kg | 3.21 min | 2.36 min | + (key: “+” means <1 min; “++” means 1-3 min; “+++” means 3-5 min; “++++” means 5-10 min; “+++++” means >10 min)
